Laboratory results taken from article PMC10504751, “Chalcone/1,3,4-Oxadiazole/Benzimidazole hybrids as novel anti-proliferative agents inducing apoptosis and inhibiting EGFR & BRAFV^600E” (BMC Chemistry, 2023).

Legend:
Assay in all cases: NCI one-dose SRB anti-proliferative screen
Assay type in all cases: cell-based
786-0 = conditions: Homo sapiens; 786-0 (Renal Cancer), NCI one dose 10 µM; read-out: Cell growth inhibition %
Outline: (§1)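 Single dose, 10 µM; SRB colorimetric read-out; run as part of the 60-line, nine-subpanel tumour panel.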

A498 = conditions: Homo sapiens; A498 (Renal Cancer), NCI one dose 10 µM; read-out: Cell growth inhibition %
Outline: as §1

ACHN = conditions: Homo sapiens; ACHN (Renal Cancer), NCI one dose 10 µM; read-out: Cell growth inhibition %
Outline: as §1

BT-549 = conditions: Homo sapiens; BT-549 (Breast Cancer), NCI one dose 10 µM; read-out: Cell growth inhibition %
Outline: as §1

CAKI-1 = conditions: Homo sapiens; CAKI-1 (Renal Cancer), NCI one dose 10 µM; read-out: Cell growth inhibition %
Outline: as §1

DU-145 = conditions: Homo sapiens; DU-145 (Prostate Cancer), NCI one dose 10 µM; read-out: Cell growth inhibition %
Outline: as §1

HL-60(TB) = conditions: Homo sapiens; HL-60(TB) (Leukemia), NCI one dose 10 µM; read-out: Cell growth inhibition %
Outline: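 Activity reflects a single-point exposure at 10 µM, with cell mass determined by a sulforhodamine B dye assay.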

HOP-92 = conditions: Homo sapiens; HOP-92 (Non-Small Cell Lung Cancer), NCI one dose 10 µM; read-out: Cell growth inhibition %
Outline: as §1

HS 578T = conditions: Homo sapiens; HS 578T (Breast Cancer), NCI one dose 10 µM; read-out: Cell growth inhibition %
Outline: as §1

HT29 = conditions: Homo sapiens, HT-29; HT29 (Colon Cancer), NCI one dose 10 µM; read-out: Cell growth inhibition %
Outline: as §1

IGROV1 = conditions: Homo sapiens, IGROV-1; IGROV1 (Ovarian Cancer), NCI one dose 10 µM; read-out: Cell growth inhibition %
Outline: as §1

KM12 = conditions: Homo sapiens; KM12 (Colon Cancer), NCI one dose 10 µM; read-out: Cell growth inhibition %
Outline: as §1

LOX IMVI = conditions: Homo sapiens; for inhibition at 10 µM: LOX IMIV (Melanoma), NCI one dose 10 µM, read-out: Cell growth inhibition %
Outline: as §1

MCF7 = conditions: Homo sapiens; MCF7 (Breast Cancer), NCI one dose 10 µM; read-out: Cell growth inhibition %
Outline: as §1

MDA-MB-231/ATCC = conditions: Homo sapiens; MDA-MB-231/ATCC (Breast Cancer), NCI one dose 10 µM; read-out: Cell growth inhibition %
Outline: as §1

MDA-MB-435 = conditions: Homo sapiens; MDA-MB-435 (Melanoma), NCI one dose 10 µM; read-out: Cell growth inhibition %
Outline: as §1

MDA-MB-468 = conditions: Homo sapiens; MDA-MB-468 (Breast Cancer), NCI one dose 10 µM; read-out: Cell growth inhibition %
Outline: as §1

NCI-H460 = conditions: Homo sapiens; NCI-H460 (Non-Small Cell Lung Cancer), NCI one dose 10 µM; read-out: Cell growth inhibition %
Outline: as §1

NCI/ADR-RES = conditions: Homo sapiens; NCI/ADR-RES (Ovarian Cancer), NCI one dose 10 µM; read-out: Cell growth inhibition %
Outline: as §1

OVCAR-3 = conditions: Homo sapiens; OVCAR-3 (Ovarian Cancer), NCI one dose 10 µM; read-out: Cell growth inhibition %
Outline: as §1

OVCAR-5 = conditions: Homo sapiens; OVCAR-5 (Ovarian Cancer), NCI one dose 10 µM; read-out: Cell growth inhibition %
Outline: as §1

OVCAR-8 = conditions: Homo sapiens; OVCAR-8 (Ovarian Cancer), NCI one dose 10 µM; read-out: Cell growth inhibition %
Outline: as §1

PC-3 = conditions: Homo sapiens; PC-3 (Prostate Cancer), NCI one dose 10 µM; read-out: Cell growth inhibition %
Outline: as §1

RPMI-8226 = conditions: Homo sapiens; RPMI-8226 (Leukemia), NCI one dose 10 µM; read-out: Cell growth inhibition %
Outline: as §1

SF-268 = conditions: Homo sapiens; SF-268 (CNS Cancer), NCI one dose 10 µM; read-out: Cell growth inhibition %
Outline: as §1

SF-539 = conditions: Homo sapiens; SF-539 (CNS Cancer), NCI one dose 10 µM; read-out: Cell growth inhibition %
Outline: as §1

SK-MEL-28 = conditions: Homo sapiens; SK-MEL-28 (Melanoma), NCI one dose 10 µM; read-out: Cell growth inhibition %
Outline: as §1

SK-MEL-2 = conditions: Homo sapiens; SK-MEL-2 (Melanoma), NCI one dose 10 µM; read-out: Cell growth inhibition %
Outline: as §1

SR = conditions: Homo sapiens; SR (Leukemia), NCI one dose 10 µM; read-out: Cell growth inhibition %
Outline: as §1

SW-620 = conditions: Homo sapiens; SW-620 (Colon Cancer), NCI one dose 10 µM; read-out: Cell growth inhibition %
Outline: as §1

TK-10 = conditions: Homo sapiens; TK-10 (Renal Cancer), NCI one dose 10 µM; read-out: Cell growth inhibition %
Outline: as §1

UO-31 = conditions: Homo sapiens; UO-31 (Renal Cancer), NCI one dose 10 µM; read-out: Cell growth inhibition %
Outline: as §1

Structure (SMILES)	inhibition at 10 µM (786-0) [%]	inhibition at 10 µM (A498) [%]	inhibition at 10 µM (ACHN) [%]	inhibition at 10 µM (BT-549) [%]	inhibition at 10 µM (CAKI-1) [%]	inhibition at 10 µM (DU-145) [%]	inhibition at 10 µM (HL-60(TB)) [%]	inhibition at 10 µM (HOP-92) [%]	inhibition at 10 µM (HS 578T) [%]	inhibition at 10 µM (HT29) [%]	inhibition at 10 µM (IGROV1) [%]	inhibition at 10 µM (KM12) [%]	inhibition at 10 µM (LOX IMVI) [%]	inhibition at 10 µM (MCF7) [%]	inhibition at 10 µM (MDA-MB-231/ATCC) [%]	inhibition at 10 µM (MDA-MB-435) [%]	inhibition at 10 µM (MDA-MB-468) [%]	inhibition at 10 µM (NCI-H460) [%]	inhibition at 10 µM (NCI/ADR-RES) [%]	inhibition at 10 µM (OVCAR-3) [%]	further results
O=C(CSc1nnc(-c2ccc3[nH]c(-c4ccc(Cl)cc4)nc3c2)o1)Nc1ccc(C(=O)/C=C/c2ccccc2)cc1 [Compound 7f, 2-{5-[2-(4-Chlorophenyl)-1 H-benzo[d]imidazol-5-yl]-1,3,4-oxadiazol-2-ylthio}-N-{4-[(E)-3-phenylacryloyl]phenyl}acetamide]	0	0	0	0	1.83	0	0	0	0	0	0	0	22.9	18.4	2.18	0	0	0	0	0	inhibition at 10 µM (OVCAR-5): 0%; inhibition at 10 µM (OVCAR-8): 0%; inhibition at 10 µM (PC-3): 0%; inhibition at 10 µM (RPMI-8226): 23.2%; inhibition at 10 µM (SF-268): 0%; inhibition at 10 µM (SF-539): 2.1%; inhibition at 10 µM (SK-MEL-28): 0%; inhibition at 10 µM (SK-MEL-2): 0%; inhibition at 10 µM (SR): 15.2%; inhibition at 10 µM (SW-620): 0%; inhibition at 10 µM (TK-10): 0%; inhibition at 10 µM (UO-31): 12.2%
O=C(CSc1nnc(-c2ccc3[nH]c(-c4ccc(Cl)cc4)nc3c2)o1)Nc1ccc(C(=O)/C=C/c2ccc(Cl)cc2)cc1 [Compound 7g, 2-{5-[2-(4-Chlorophenyl)-1 H-benzo[d]imidazol-5-yl]-1,3,4-oxadiazol-2-ylthio}-N-{4-[(E)-3-(4-chlorophenyl)acryloyl]phenyl}acetamide]	7.38	9.85	1.98	0.37	16.4	0	14	5.81	11	0	14.4	0.67	124	44.8	9.38	0.11	0	0	0	0	inhibition at 10 µM (OVCAR-5): 0%; inhibition at 10 µM (OVCAR-8): 2.88%; inhibition at 10 µM (PC-3): 12.3%; inhibition at 10 µM (RPMI-8226): 95%; inhibition at 10 µM (SF-268): 0.08%; inhibition at 10 µM (SF-539): 15.7%; inhibition at 10 µM (SK-MEL-28): 0%; inhibition at 10 µM (SK-MEL-2): 0%; inhibition at 10 µM (SR): 50.2%; inhibition at 10 µM (SW-620): 0%; inhibition at 10 µM (TK-10): 0%; inhibition at 10 µM (UO-31): 24.7%
COc1ccc(/C=C/C(=O)c2ccc(NC(=O)CSc3nnc(-c4ccc5[nH]c(-c6ccc(Cl)cc6)nc5c4)o3)cc2)cc1 [Compound 7h, 2-{5-[2-(4-Chlorophenyl)-1 H-benzo[d]imidazol-5-yl]-1,3,4-oxadiazol-2-ylthio}-N-{4-[(E)-3-(4-methoxyphenyl)acryloyl]phenyl}acetamide]	0.41	0	0	15	2.63	0	21.4	0	5.34	0	4.69	0.3	93.2	20.3	1.61	1.94	0	0	0	0	activity at 10 µM (LOX IMVI; LOX IMVI (Melanoma), 10 µM one dose, read-out: Growth Percent): -32 to 18%; inhibition at 10 µM (OVCAR-5): 0%; inhibition at 10 µM (OVCAR-8): 20.5%; inhibition at 10 µM (PC-3): 17.5%; inhibition at 10 µM (RPMI-8226): 35.6%; inhibition at 10 µM (SF-268): 0%; inhibition at 10 µM (SF-539): 5.67%; inhibition at 10 µM (SK-MEL-28): 0%; inhibition at 10 µM (SK-MEL-2): 0%; inhibition at 10 µM (SR): 19.5%; inhibition at 10 µM (SW-620): 0%; inhibition at 10 µM (TK-10): 0%; inhibition at 10 µM (UO-31): 12.5%
